Bridge positions count the residues as written; N and C are the ends. Square brackets hold non-standard residues; d marks the D form. Peptide text beside a SMILES is read from it. * marks the point of attachment. Asp(3S-OH) = N[C@H](C(=O)O)[C@H](O)C(=O)O; Thr(4-Cl) = N[C@H](C(=O)O)[C@H](O)CCl; X1 = CCCCCCCCC[C@@H](O)CC(=O)*; dDab = NCC[C@@H](N)C(=O)O; Dab = NCC[C@H](N)C(=O)O; Dhb = C/C=C(\N)C(=O)O
Legend:
Type in all cases: cell-based, human
[1] = test system: pokeweed mitogen (PWM)-induced lymphocyte proliferation; assay: PWM-induced lymphocyte proliferation ([3H]-thymidine incorporation)
Procedure: (§1) Lipodepsipeptide for Immunosuppression Experiments: SR-E was purified as previously described in Bidwai, A. P., Bachmann, R. C. and Takemoto, J. Y., "Mechanism of action of Pseudomonas syringae phytotoxin syringomycin". Plant Physiol. 83:39-43 (1987). A stock solution (10 mg per ml) was prepared in RPMI1640 culture media, aliquoted and stored frozen at -20°.
(§2) Lymphocyte stimulation: Lymphocyte stimulation was performed with three different mitogens: phytohemagglutinin (PHA), pokeweed mitogen (PWM), and monoclonal antibody to CD3 (anti-CD3). […]
(§3) Mitogen-induced lymphocyte proliferation: Peripheral blood mononuclear cells (MNC) (containing lymphocytes and monocytes) were separated by Ficoll-Hypaque density-gradient centrifugation using techniques well known in the art. Mitogen-induced lymphocyte proliferation was determined as previously described in Singh, V. K., "Stimulatory effect of corticotropin-releasing neurohormone on human lymphocyte proliferation and interleukin-2 receptor expression". […]
(§4) [^3 H]-thymadine Incorporation: Cells were pulse-labeled for 4 hours with 0.5 μCi/well of [^3 H]methyl-thymidine (spec. act.=25 Ci/mmol from Amersham Intl.). […] To each vial, 2 ml of CytoScint fluid (ICN Biomedicals) was dispensed and the radioactivity determined using a liquid scintillation counter (Tri-Carb, Packard). […]

[2] = test system: phytohemagglutinin (PHA)-induced lymphocyte proliferation; assay: PHA-induced lymphocyte proliferation ([3H]-thymidine incorporation)
Procedure: as §1, §2, §3, §4

[3] = test system: monoclonal antibody to CD3 (anti-CD3)-induced lymphocyte proliferation; assay: anti-CD3-induced lymphocyte proliferation ([3H]-thymidine incorporation)
Procedure: as §1, §2, §3, §4

C/C=C1\NC(=O)[C@H](Cc2ccccc2)NC(=O)[C@H](CCCN=C(N)N)NC(=O)[C@@H](CCN)NC(=O)[C@H](CCN)NC(=O)[C@@H](CO)NC(=O)[C@@H](NC(=O)C[C@H](O)CCCCCCCCC)COC(=O)[C@H]([C@H](O)CCl)NC(=O)[C@H]([C@H](O)C(=O)O)NC1=O [SR-E, Syringomycin-E] (X1-S[dS][Dab][dDab]RF[Dhb][Asp(3S-OH)][Thr(4-Cl)]; ester 1-C)
inhibition of PWM response ([1]; 1.14 μM): significantly inhibited
suppression of PWM response ([1]; 5.72 μM, p=0.017): 60%
significant inhibition of PHA response ([2]; 1.14 μM): not
suppression of PHA response ([2]; 5.72 μM, p=0.026): 25%
significant inhibition of anti-CD3 response ([3]; 1.14 μM): not
suppression of anti-CD3 response ([3]; 5.72 μM, p=0.02): 30%
